{
  "source": "patent US4599203A",
  "about": "“Multisulfonated naphthalene ureas useful as complement inhibitors” (American Cyanamid Company, priority 1984, dated 1986)",
  "key": {"activated human C1": {"target": "activated human C1 (Homo sapiens, UniProt P09871)", "experiment": "Test Code 026 (C1 inhibitor): protection of fluid phase human C2 from activated human C1 in the presence of C4", "assay_type": "biochemical", "details": "serial twofold dilution assay; higher well number indicates higher activity"}, "complement": {"system": "complement", "experiment": "Guinea Pig Intraperitoneal Test (GPIP): serum complement activity after i.p. dosing", "assay_type": "in vivo", "details": "200 mg/kg i.p.; for In vivo Activity Guinea Pigs Intraperitoneal % Lowering, 30 minutes: blood 30 minutes after injection; for In vivo Activity Guinea Pigs Intraperitoneal % Lowering, 60 minutes: blood 60 minutes after injection; for In vivo Activity Guinea Pigs Intraperitoneal % Lowering, 120 minutes: blood 120 minutes after injection", "experimental": "(§1) An active inhibitor protects C2 from C1 and C4; (ii) Test Code 036 (C-Shunt inhibitor)--In this test human erythrocytes rendered fragile are lysed in autologous serum via the shunt pathway activated by cobra venom factor in the presence of appropriate dilutions of the test compound. Inhibition of the shunt pathway results in failure of lysis; (iii) Cap 50 Test--Here, appropriate amounts of the test compound are added to a pool of guinea pig serum in vitro, after which the complement level is determined in undiluted serum by the serum capillary tube assay of U.S. Pat. No. 3,876,376. The concentration of compound inhibiting 50% is reported; and (iv) Guinea Pig Intraperitoneal Test (GPIP)--Guinea pigs weighing about 300 g are dosed intraperitoneally (i.p.) with 200 mg/kg of the test compound dissolved in saline and adjusted to pH 7-8. Approximately 0.4 ml blood samples, taken by orbital sinus puncture 30 minutes and one hour after injections, are collected directly into centrifuge tubes; 5 ml blood samples, taken by decapitation 2 hours after inJection, are collected directly into diSPo® beakers. The samples were allowed to clot, centrifuged, and the resultant sera were assayed for complement activity using the capillary complement assay. Percent inhibition is calculated by comparison with simultaneous controls. The results of the GPIP appear in Table I together with results of Test Code 026, 036 and Cap 50."}, "[1]": {"system": "hereditary angioneurotic edema", "details": "literature report; cited from earlier work"}, "complement system": {"system": "complement system", "details": "literature report; cited from earlier work"}, "shunt pathway": {"system": "shunt pathway", "experiment": "Test Code 036 (C-Shunt inhibitor): lysis of fragile human erythrocytes in autologous serum via shunt pathway activated by cobra venom factor", "assay_type": "cell-based", "details": "serial twofold dilution assay; higher well number indicates higher activity", "experimental": "as §1, with “The results of the GPIP appear in Table I together with results of Test Code 026, 036 and Cap 50.” left out"}},
  "note": "Structures can show the parent of a compound that is named as a salt.",
  "data": [
    {"compound": "O=C(Nc1cc2ccc(S(=O)(=O)[O-])cc2cc1S(=O)(=O)[O-])Nc1cc2ccc(S(=O)(=O)[O-])cc2cc1S(=O)(=O)[O-].[Na+].[Na+].[Na+].[Na+]", "note": "[3,3'-Ureylenedi-2,7-naphthalenedisulfonic acid, tetrasodium salt]", "values": [
      {"measurement": "In vitro Activity C1 026 Wells", "setting": "activated human C1", "value": "+3 Wells"}
    ]},
    {"compound": "O=C(Nc1cc(S(=O)(=O)[O-])cc2cc(S(=O)(=O)[O-])cc(S(=O)(=O)[O-])c12)Nc1cc(S(=O)(=O)[O-])cc2cc(S(=O)(=O)[O-])cc(S(=O)(=O)[O-])c12.[Na+].[Na+].[Na+].[Na+].[Na+].[Na+]", "note": "[8,8'-Ureylenedi-1,3,6-naphthalenetrisulfonic acid, hexasodium salt]", "values": [
      {"measurement": "In vitro Activity C1 026 Wells", "setting": "activated human C1", "value": "+5 Wells"},
      {"measurement": "In vivo Activity Guinea Pigs Intraperitoneal % Lowering, 30 minutes", "setting": "complement", "value": 25, "unit": "%"},
      {"measurement": "In vivo Activity Guinea Pigs Intraperitoneal % Lowering, 60 minutes", "setting": "complement", "value": 61, "unit": "%"},
      {"measurement": "In vivo Activity Guinea Pigs Intraperitoneal % Lowering, 120 minutes", "setting": "complement", "value": 65, "unit": "%"}
    ]},
    {"compound": "NC[C@H]1CC[C@H](C(=O)O)CC1", "note": "[tranexamic acid]", "values": [
      {"measurement": "treatment of hereditary angioneurotic edema", "setting": "[1]", "value": "used with success"}
    ]},
    {"compound": "Nc1ccc2cc(S(=O)(=O)[O-])cc(O)c2c1N=Nc1ccc(NC(=O)Nc2ccc(N=Nc3c(N)ccc4cc(S(=O)(=O)[O-])cc(O)c34)c(S(=O)(=O)[O-])c2)cc1S(=O)(=O)[O-].[Na+].[Na+].[Na+].[Na+]", "note": "[chlorazol fast pink, 3,3'-ureylenebis[6-(2-amino-8-hydroxy-6-sulfo-1-naphthylazo)benzenesulfonic acid], tetrasodium salt]", "values": [
      {"measurement": "anti-complementary effect", "setting": "complement system", "value": "anti-complementary effect"}
    ]},
    {"compound": "O=C(Nc1ccc(S(=O)(=O)[O-])c2ccccc12)Nc1ccc(S(=O)(=O)[O-])c2ccccc12.[Na+].[Na+]", "note": "[4,4'-Ureylenedi-1-naphthalenesulfonic acid, disodium salt]", "values": [
      {"measurement": "In vitro Activity C1 026 Wells", "setting": "activated human C1", "value": "+2 Wells"}
    ]},
    {"compound": "O=C(Nc1ccc(S(=O)(=O)[O-])c2ccc(S(=O)(=O)[O-])cc12)Nc1ccc(S(=O)(=O)[O-])c2ccc(S(=O)(=O)[O-])cc12.[Na+].[Na+].[Na+].[Na+]", "note": "[4,4'-Ureylenedi-1,6-naphthalenedisulfonic acid, tetrasodium salt]", "values": [
      {"measurement": "In vitro Activity C1 026 Wells", "setting": "activated human C1", "value": "+3 Wells"}
    ]},
    {"compound": "NCCCCCC(=O)O", "note": "[epsilon-aminocaproic acid]", "values": [
      {"measurement": "treatment of hereditary angioneurotic edema", "setting": "[1]", "value": "used with success"}
    ]},
    {"compound": "O=C(Nc1cc(S(=O)(=O)O)cc2cc(S(=O)(=O)O)cc(OS(=O)(=O)c3ccccc3)c12)Nc1cc(S(=O)(=O)O)cc2cc(S(=O)(=O)O)cc(OS(=O)(=O)c3ccccc3)c12", "note": "[4,4'-Ureylenebis(5-hydroxy-2,7-naphthalenedisulfonic acid), tetrasodium salt dibenzenesulfonate]", "values": [
      {"measurement": "In vitro Activity C1 026 Wells", "setting": "activated human C1", "value": "+3 Wells"}
    ]},
    {"compound": "O=C(Nc1ccc2c(S(=O)(=O)[O-])cc(S(=O)(=O)[O-])cc2c1)Nc1ccc2c(S(=O)(=O)[O-])cc(S(=O)(=O)[O-])cc2c1.[Na+].[Na+].[Na+].[Na+]", "note": "[6,6'-Ureylenedi-1,3-naphthalenedisulfonic acid, tetrasodium salt]", "values": [
      {"measurement": "In vitro Activity C1 026 Wells", "setting": "activated human C1", "value": "+3 Wells"}
    ]},
    {"compound": "O=S(=O)([O-])c1cc(NC(=S)Nc2cc(S(=O)(=O)[O-])cc3cc(S(=O)(=O)[O-])cc(S(=O)(=O)[O-])c23)c2c(S(=O)(=O)[O-])cc(S(=O)(=O)[O-])cc2c1.[Na+].[Na+].[Na+].[Na+].[Na+].[Na+]", "note": "[8,8'-(2-Thioureylene)di-1,3,6-naphthalenetrisulfonic acid, hexasodium salt]", "values": [
      {"measurement": "In vitro Activity C1 026 Wells", "setting": "activated human C1", "value": "+5 Wells"},
      {"measurement": "In vivo Activity Guinea Pigs Intraperitoneal % Lowering, 30 minutes", "setting": "complement", "value": 41, "unit": "%"},
      {"measurement": "In vivo Activity Guinea Pigs Intraperitoneal % Lowering, 60 minutes", "setting": "complement", "value": 20, "unit": "%"},
      {"measurement": "In vivo Activity Guinea Pigs Intraperitoneal % Lowering, 120 minutes", "setting": "complement", "value": 42, "unit": "%"}
    ]},
    {"compound": "O=C(Nc1cc(S(=O)(=O)[O-])cc2ccc(S(=O)(=O)[O-])cc12)Nc1cc(S(=O)(=O)[O-])cc2ccc(S(=O)(=O)[O-])cc12.[Na+].[Na+].[Na+].[Na+]", "note": "[4,4'-Ureylenedi-2,6-naphthalenedisulfonic acid, tetrasodium salt]", "values": [
      {"measurement": "In vitro Activity C1 026 Wells", "setting": "activated human C1", "value": "+2 Wells"}
    ]},
    {"compound": "O=C(Nc1cc(S(=O)(=O)[O-])cc2cc(S(=O)(=O)[O-])ccc12)Nc1cc(S(=O)(=O)[O-])cc2cc(S(=O)(=O)[O-])ccc12.[Na+].[Na+].[Na+].[Na+]", "note": "[4,4'-Ureylenedi-2,7-naphthalenedisulfonic acid, tetrasodium salt]", "values": [
      {"measurement": "In vitro Activity C1 026 Wells", "setting": "activated human C1", "value": "+3 Wells"}
    ]},
    {"compound": "O=C(Nc1cc(S(=O)(=O)[O-])c2cc(S(=O)(=O)[O-])cc(S(=O)(=O)[O-])c2c1)Nc1cc(S(=O)(=O)[O-])c2cc(S(=O)(=O)[O-])cc(S(=O)(=O)[O-])c2c1.[Na+].[Na+].[Na+].[Na+].[Na+].[Na+]", "note": "[7,7'-Ureylenedi-1,3,5-naphthalenetrisulfonic acid, hexasodium salt]", "values": [
      {"measurement": "In vitro Activity C1 026 Wells", "setting": "activated human C1", "value": "+6 Wells"},
      {"measurement": "In vitro Activity C-Shunt Inhibition 036 Wells", "setting": "shunt pathway", "value": "+1 Wells"}
    ]},
    {"compound": "O=C(Nc1cc(S(=O)(=O)[O-])c2cc([N+](=O)[O-])cc(S(=O)(=O)[O-])c2c1)Nc1cc(S(=O)(=O)[O-])c2cc([N+](=O)[O-])cc(S(=O)(=O)[O-])c2c1.[Na+].[Na+].[Na+].[Na+]", "note": "[3,3'-Ureylenebis(7-nitro-1,5-naphthalenedisulfonic acid), tetrasodium salt]", "values": [
      {"measurement": "In vitro Activity C1 026 Wells", "setting": "activated human C1", "value": "+3 Wells"}
    ]},
    {"compound": "O=C(Nc1ccc2cc(S(=O)(=O)O)cc(O)c2c1)Nc1ccc2cc(S(=O)(=O)O)cc(O)c2c1", "note": "[7,7'-ureylenebis(1-hydroxy-3-naphthalenesulfonic acid)]", "values": [
      {"measurement": "In vitro Activity C1 026 Wells", "setting": "activated human C1", "value": "+2 Wells"}
    ]},
    {"compound": "O=C(Nc1cc2c(O)cc(S(=O)(=O)[O-])cc2cc1S(=O)(=O)[O-])Nc1cc2c(O)cc(S(=O)(=O)[O-])cc2cc1S(=O)(=O)[O-].[Na+].[Na+].[Na+].[Na+]", "note": "[3,3'-Ureylenebis(5-hydroxy-2,7-naphthalenedisulfonic acid), tetrasodium salt]", "values": [
      {"measurement": "In vitro Activity C1 026 Wells", "setting": "activated human C1", "value": "+4 Wells"},
      {"measurement": "In vivo Activity Guinea Pigs Intraperitoneal % Lowering, 30 minutes", "setting": "complement", "value": 4, "unit": "%"},
      {"measurement": "In vivo Activity Guinea Pigs Intraperitoneal % Lowering, 60 minutes", "setting": "complement", "value": 1, "unit": "%"},
      {"measurement": "In vivo Activity Guinea Pigs Intraperitoneal % Lowering, 120 minutes", "setting": "complement", "value": 28, "unit": "%"}
    ]},
    {"compound": "heparin", "values": [
      {"measurement": "anti-complementary effect", "setting": "complement system", "value": "anti-complementary effect"}
    ]},
    {"compound": "O=C(Nc1cc(S(=O)(=O)[O-])cc2cccc(S(=O)(=O)[O-])c12)Nc1cc(S(=O)(=O)[O-])cc2cccc(S(=O)(=O)[O-])c12.[Na+].[Na+].[Na+].[Na+]", "note": "[8,8'-Ureylenedi-1,6-naphthalenedisulfonic acid, tetrasodium salt]", "values": [
      {"measurement": "In vitro Activity C1 026 Wells", "setting": "activated human C1", "value": "+3 Wells"}
    ]},
    {"compound": "O=C(Nc1ccc2c(O)cc(S(=O)(=O)O)cc2c1)Nc1ccc2c(O)cc(S(=O)(=O)O)cc2c1", "note": "[6,6'-ureylenebis(1-hydroxy-3-naphthalenesulfonic acid)]", "values": [
      {"measurement": "In vitro Activity C1 026 Wells", "setting": "activated human C1", "value": "+1 Wells"}
    ]},
    {"compound": "O=C(Nc1ccc(S(=O)(=O)[O-])c2cc(S(=O)(=O)[O-])cc(S(=O)(=O)[O-])c12)Nc1ccc(S(=O)(=O)[O-])c2cc(S(=O)(=O)[O-])cc(S(=O)(=O)[O-])c12.[Na+].[Na+].[Na+].[Na+].[Na+].[Na+]", "note": "[8,8'-Ureylenedi-1,3,5-naphthalenetrisulfonic acid, hexasodium salt]", "values": [
      {"measurement": "In vivo Activity Guinea Pigs Intraperitoneal % Lowering, 30 minutes", "setting": "complement", "value": 92, "unit": "%"},
      {"measurement": "In vivo Activity Guinea Pigs Intraperitoneal % Lowering, 60 minutes", "setting": "complement", "value": 92, "unit": "%"},
      {"measurement": "In vivo Activity Guinea Pigs Intraperitoneal % Lowering, 120 minutes", "setting": "complement", "value": 94, "unit": "%"}
    ]}
  ]
}
